Experiments:
PD-L1 in U937 cells = assay: PD-L1 levels in U937 cells by western blotting and flow cytometry; type: cell-based, human; conditions: western blotting and flow cytometry, 10 μM, 12 h
Experimental: Fig. 1 EGFR inhibitors were screened to reduce membrane PD-L1 levels. a High-throughput screening of 2125 FDA-approved drugs or drug candidates. U937 cells were incubated with IFNγ (100 ng/mL) for 48 h, treated with the drugs at 10 μM for 12 h. Ruxolitinib (Rux) was used as a positive control. The hit compounds that induced the decrease of PD-L1 levels are shown in blue. The depth of blue represents decreased level of PD-L1. The heatmap represents the targeted pathways obtained from the high-throughput screening, based upon decreased membrane PD-L1 level detected by flow cytometry. b Immunoblotting of PD-L1 in U937 cells treated with ES-072 (ES) or AZD9291 (AZD) at indicated concentrations for 12 h. ES and AZD are EGFR inhibitors. c, d Median fluorescence intensity (MFI) (c) and relative quantification (d) of PD-L1 in U937 cells treated with 10 μM ES-072 or 10 μM AZD9291 for 12 h. Data represent means ± SEM, n = 18, 6 independent repeats, ****P < 0.0001. e–g Immunoblotting (e, f) and flow cytometry (g) analysis of PD-L1 levels in U937 cells treated with 10 μM ES-072 or 10 μM AZD9291 for the indicated times. h, i Immunoblottings (h) of PD-L1 and β-TrCP, relative quantification (i) of PD-L1 MFI in H1975 cells transfected with non-targeting siRNA (si-CTRL) or β-TrCP siRNAs (si-β-TrCP) and treated with or without 10 μM ES-072/AZD9291 for 12 h. Data represent means ± SEM, n = 9, 3 independent repeats, NS: no significant; ****P < 0.0001. j–l Immunoblotting (j) and flow cytometry analysis (k) with relative quantification (l) of PD-L1 in H1975 cells treated with 10 μM ES-072 or AZD9291, and/or 5 μM LY2090314 (LY) for 12 h. LY is a GSK3 inhibitor. […]
For western blot analysis, cells were collected and washed with PBS, then lysed in radioimmunoprecipitation assay (RIPA) buffer (1% Triton X-100, 100 mM Tris-HCl pH 8.8, 100 mM NaCl, 0.5 mM EDTA). […] The supernatant was collected and the protein concentration was measured by bicinchoninic acid reaction. […] Signals were detected using chemiluminescence reagents (#4AW001-500, 4A649 Biotech, Co.). […]

GSK3α = GSK3α (Homo sapiens, UniProt P49840); assay: In vitro kinase specificity profiling for GSK3α; type: biochemical
GSK3α, sequence (P49840 whole entry): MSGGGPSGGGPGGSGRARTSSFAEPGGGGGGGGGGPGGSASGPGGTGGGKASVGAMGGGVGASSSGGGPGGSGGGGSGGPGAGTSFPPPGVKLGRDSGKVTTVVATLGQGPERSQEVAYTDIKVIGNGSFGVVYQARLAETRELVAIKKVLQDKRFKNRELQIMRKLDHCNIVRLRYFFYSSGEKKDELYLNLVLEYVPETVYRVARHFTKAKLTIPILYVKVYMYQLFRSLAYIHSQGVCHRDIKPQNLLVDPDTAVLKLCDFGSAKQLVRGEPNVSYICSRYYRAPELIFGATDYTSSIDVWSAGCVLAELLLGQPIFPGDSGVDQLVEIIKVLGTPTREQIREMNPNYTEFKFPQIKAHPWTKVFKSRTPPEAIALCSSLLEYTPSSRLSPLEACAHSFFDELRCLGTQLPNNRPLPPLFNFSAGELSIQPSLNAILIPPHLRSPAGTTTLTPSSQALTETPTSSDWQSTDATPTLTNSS

PD-L1 Ser279 = assay: Immunoblots with phospho-specific antibody against PD-L1 Ser279; type: cell-based, human; conditions: endogenous (H1975, 2 h) and recombinant (HEK293T, 10 μM, 2 h) PD-L1
Experimental: Fig. 2 Phosphorylation on S279/S283 impairs the stability of PD-L1. a Mapping PD-L1 phosphorylation sites following ES-072 treatment. HEK293T cells were transfected with Flag-PD-L1 and treated with 10 μM ES-072 for 48 h. Immunoprecipitated PD-L1 was analyzed by mass spectrometry following phosphopeptide enrichment. Peptide ionization data corresponding to Ser279/283 are shown. b Schematic diagram of phosphorylated sites on PD-L1. Full-length PD-L1 was separated into an extracellular domain (ECD) and intracellular domain (ICD). SP: signal peptide; TM: transmembrane domain. c Schematic diagram of phosphorylated sites, S279 and S283 in the ICD of PD-L1. Positions of phosphorylated sites were labeled in red. […] Scale bars represent 50 μm. i, j Quantification of IHC analysis for p-PD-L1 (Ser279) (i) and PD-L1 (j) in h. […]
For western blot analysis, cells were collected and washed with PBS, then lysed in radioimmunoprecipitation assay (RIPA) buffer (1% Triton X-100, 100 mM Tris-HCl pH 8.8, 100 mM NaCl, 0.5 mM EDTA). […] The supernatant was collected and the protein concentration was measured by bicinchoninic acid reaction. […] Signals were detected using chemiluminescence reagents (#4AW001-500, 4A649 Biotech, Co.).

IC50 (GSK3α; as worded in response to reviewers): > 40 µM
IC50 (GSK3α; single independent tests): > 40 µM
SMILES: C=CC(=O)Nc1cccc(Nc2nc(Nc3ccc(N4CCN(C)CC4)nc3OC)ncc2C(F)(F)F)c1 [ES-072]
IFNγ-induced membranal PD-L1 levels (PD-L1 in U937 cells): dramatically reduced
phosphorylation of PD-L1 at Ser279 (PD-L1 Ser279): robust phosphorylation

— paper PMC8058344, “ARIH1 signaling promotes anti-tumor immunity by targeting PD-L1 for proteasomal degradation” (Nature Communications, 2021)
